Measurements: patent US20200017495A1, “NOVEL HETEROCYCLIC COMPOUNDS AND THEIR USE IN PREVENTING OR TREATING BACTERIAL INFECTIONS” (priority 2017, published 2020)

What was measured:
Format in all cases: cell-based
[1] = tested on: Morganella morganii (MMO) isolates; assay: MIC of compounds alone and combined with antibacterials, broth microdilution (CLSI)
Outline: (§1)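 Antibacterial MICs in combination were determined at every compound concentration tested, alongside compound MICs alone. Bacteria grew in cation-adjusted Mueller-Hinton broth starting from 5.10^5 CFU/mL, incubated at 35° C for 16-20 h, and endpoints were the lowest concentrations with no visible growth.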

[2] = tested on: Proteus mirabilis (PMI) isolates; assay: microbe, parasite or virus in culture
Outline: as §1

[3] = tested on: Providencia stuartii (PST) isolates; assay: MIC of compounds alone and combined with antibacterials, broth microdilution (CLSI)
Outline: (§2)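 Visual read-out: MIC is the lowest concentration stopping growth, and in combinations the lowest antibacterial concentration doing so at each fixed compound level. Inoculum 5.10^5 CFU/mL log-phase cells in ca-MHB, 35° C, 16-20 h, ambient air.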

[4] = tested on: Salmonella typhimurium (STY) isolates; assay: as above; settings: for MIC ATB in combination: STY S3371
Outline: as §2

Structure (SMILES): C=CC1=C(C(=O)O)N2C(=O)[C@@H](NC(=O)/C(=N\OCC(=O)O)c3csc(N)n3)[C@H]2SC1 [FIX, Cefixime]
- MIC ATB in combination ([1]; MMO UFR243, AF3 @ 8 μg/mL): <=0.25 μg/mL
- MIC ATB in combination ([1]; MMO UFR243, CLA @ 4 μg/mL): 32 µg/mL
- MIC ATB in combination ([1]; MMO UFR244, AF2 @ 8 μg/mL): <=0.25 μg/mL
- MIC ATB in combination ([1]; MMO UFR244, AF3 @ 8 μg/mL): <=0.25 μg/mL
- MIC ATB in combination ([1]; MMO UFR244, CLA @ 4 μg/mL): 8 µg/mL
- MIC ATB in combination ([1]; MMO UFR245, AF2 @ 8 μg/mL): 1 µg/mL
- MIC ATB in combination ([1]; MMO UFR245, AF3 @ 8 μg/mL): <=0.25 μg/mL
- MIC ATB in combination ([1]; MMO UFR245, CLA @ 4 μg/mL): 64 µg/mL
- MIC ATB in combination ([1]; MMO UFR246, AF2 @ 8 μg/mL): 1 µg/mL
- MIC ATB in combination ([1]; MMO UFR246, AF3 @ 8 μg/mL): 0.5 µg/mL
- MIC ATB in combination ([1]; MMO UFR246, CLA @ 4 μg/mL): 64 µg/mL
- MIC ATB in combination ([1]; MMO UFR247, AF2 @ 8 μg/mL): <=0.25 μg/mL
- MIC ATB in combination ([1]; MMO UFR247, AF3 @ 8 μg/mL): <=0.25 μg/mL
- MIC ATB in combination ([1]; MMO UFR247, CLA @ 4 μg/mL): 32 µg/mL
- MIC ([1]; strain MMO 200321, genotype TEM-1, CTX-M-15, OXA-1): >128 µg/mL
- MIC ([1]; strain MMO UFR144, genotype TEM-1, CTX-M-15): >128 µg/mL
- MIC ATB in combination ([1]; strain MMO UFR145, with AF2 @ 8 μg/mL): >128 µg/mL
- MIC ATB in combination ([1]; strain MMO UFR145, with AF3 @ 8 μg/mL): >128 µg/mL
- MIC ATB in combination ([1]; strain MMO UFR145, with CLA @ 4 μg/mL): >128 µg/mL
- MIC ([1]; strain MMO UFR240, genotype CTX-M-9): 1 µg/mL
- MIC ([1]; strain MMO UFR241, genotype TEM-1, CTX-M-15): >128 µg/mL
- MIC ([1]; strain MMO UFR242, genotype TEM-52): 1024 µg/mL
- MIC ([1]; strain MMO UFR243, genotype DHA-1): 8 µg/mL
- MIC ([1]; strain MMO UFR244, genotype DHA-1): 4 µg/mL
- MIC ([1]; strain MMO UFR245, genotype DHA-1): 32 µg/mL
- MIC ([1]; strain MMO UFR246, genotype DHA-1): 32 µg/mL
- MIC ([1]; strain MMO UFR247, genotype DHA-1): 16 µg/mL
- MIC ATB in combination ([2]; PMI UFR82, AF2 @ 8 μg/mL): <0.25 µg/mL
- MIC ATB in combination ([2]; PMI UFR82, AF3 @ 8 μg/mL): <0.25 µg/mL
- MIC ATB in combination ([2]; PMI UFR82, CLA @ 4 μg/mL): 4 µg/mL
- MIC ATB in combination ([2]; PMI UFR126, AF2 @ 8 μg/mL): <0.25 µg/mL
- MIC ATB in combination ([2]; PMI UFR126, AF3 @ 8 μg/mL): <0.25 µg/mL
- MIC ATB in combination ([2]; PMI UFR126, CLA @ 4 μg/mL): <=0.25 μg/mL
- MIC ATB in combination ([2]; PMI UFR127, AF2 @ 8 μg/mL): <0.25 µg/mL
- MIC ATB in combination ([2]; PMI UFR127, AF3 @ 8 μg/mL): <0.25 µg/mL
- MIC ATB in combination ([2]; PMI UFR127, CLA @ 4 μg/mL): <=0.25 μg/mL
- MIC ATB in combination ([2]; PMI UFR128, AF2 @ 8 μg/mL): <0.25 µg/mL
- MIC ATB in combination ([2]; PMI UFR128, AF3 @ 8 μg/mL): <0.25 µg/mL
- MIC ATB in combination ([2]; PMI UFR128, CLA @ 4 μg/mL): 0.5 µg/mL
- MIC ATB in combination ([2]; PMI UFR129, AF2 @ 8 μg/mL): <0.25 µg/mL
- MIC ATB in combination ([2]; PMI UFR129, AF3 @ 8 μg/mL): <0.25 µg/mL
- MIC ATB in combination ([2]; PMI UFR129, CLA @ 4 μg/mL): <=0.25 μg/mL
- MIC ATB in combination ([2]; PMI UFR130, AF2 @ 8 μg/mL): <0.25 µg/mL
- MIC ATB in combination ([2]; PMI UFR130, AF3 @ 8 μg/mL): <0.25 µg/mL
- MIC ATB in combination ([2]; PMI UFR130, CLA @ 4 μg/mL): 8 µg/mL
- MIC ATB in combination ([2]; PMI UFR133, AF2 @ 8 μg/mL): <0.25 µg/mL
- MIC ATB in combination ([2]; PMI UFR133, AF3 @ 8 μg/mL): <0.25 µg/mL
- MIC ATB in combination ([2]; PMI UFR133, CLA @ 4 μg/mL): <=0.25 μg/mL
- MIC ATB in combination ([2]; PMI UFR237, AF2 @ 8 μg/mL): <0.25 µg/mL
- MIC ATB in combination ([2]; PMI UFR237, AF3 @ 8 μg/mL): <0.25 µg/mL
- MIC ATB in combination ([2]; PMI UFR237, CLA @ 4 μg/mL): <=0.25 μg/mL
- MIC ([2]; strain PMI UFR82, genotype CMY-2): 8 µg/mL
- MIC ([2]; strain PMI UFR120, genotype TEM-1, SHV-11, CTX-M-14): 0.5 µg/mL
- MIC ([2]; strain PMI UFR121, genotype TEM-1, TEM-52): 128 µg/mL
- MIC ([2]; strain PMI UFR122, genotype TEM-1, CTX-M-15): 1 µg/mL
- MIC ([2]; strain PMI UFR123, genotype CTX-M-1): 128 µg/mL
- MIC ([2]; strain PMI UFR124, genotype CTX-M-2): >128 µg/mL
- MIC ([2]; strain PMI UFR125, genotype CTX-M-71): 0.5 µg/mL
- MIC ([2]; strain PMI UFR126, compound alone): 1024 µg/mL
- MIC ([2]; strain PMI UFR126, genotype TEM-2, PER-1): 1024 µg/mL
- MIC ([2]; strain PMI UFR127, compound alone): >128 µg/mL
- MIC ([2]; strain PMI UFR127, genotype VEB-1): >128 µg/mL
- MIC ([2]; strain PMI UFR128, genotype VEB-1, OXA-10): >128 µg/mL
- MIC ([2]; strain PMI UFR129, genotype TEM-1, VEB-6): >128 µg/mL
- MIC ([2]; strain PMI UFR130, genotype CMY-2): 8 µg/mL
- MIC ([2]; strain PMI UFR131, genotype CMY-16, OXA-1, OXA-10, NDM-1, ArmA): >128 µg/mL
- MIC ATB in combination ([2]; strain PMI UFR131, with AF2 @ 8 μg/mL): <0.25 µg/mL
- MIC ATB in combination ([2]; strain PMI UFR131, with AF3 @ 8 μg/mL): <0.25 µg/mL
- MIC ATB in combination ([2]; strain PMI UFR131, with CLA @ 4 μg/mL): >128 µg/mL
- MIC ([2]; strain PMI UFR132, genotype VEB-6, DHA-1, NDM-1, AphA6, AacA4): >128 µg/mL
- MIC ATB in combination ([2]; strain PMI UFR132, with AF2 @ 8 μg/mL): <0.25 µg/mL
- MIC ATB in combination ([2]; strain PMI UFR132, with AF3 @ 8 μg/mL): <0.25 µg/mL
- MIC ATB in combination ([2]; strain PMI UFR132, with CLA @ 4 μg/mL): >128 µg/mL
- MIC ([2]; strain PMI UFR133, genotype OXA-23): <=0.25 μg/mL
- MIC ([2]; strain PMI UFR237, genotype VEB-6): >128 µg/mL
- MIC ATB in combination ([3]; PST UFR94, AF2 @ 8 μg/mL): <=0.25 μg/mL
- MIC ATB in combination ([3]; PST UFR94, AF3 @ 8 μg/mL): <=0.25 μg/mL
- MIC ATB in combination ([3]; PST UFR94, CLA @ 4 μg/mL): 2 µg/mL
- MIC ATB in combination ([3]; PST UFR95, AF2 @ 8 μg/mL): <=0.25 μg/mL
- MIC ATB in combination ([3]; PST UFR95, AF3 @ 8 μg/mL): <=0.25 μg/mL
- MIC ATB in combination ([3]; PST UFR95, CLA @ 4 μg/mL): 8 µg/mL
- MIC ATB in combination ([3]; PST UFR120, AF2 @ 8 μg/mL): <0.25 µg/mL
- MIC ATB in combination ([3]; PST UFR120, AF3 @ 8 μg/mL): <0.25 µg/mL
- MIC ATB in combination ([3]; PST UFR120, CLA @ 4 μg/mL): <=0.25 μg/mL
- MIC ATB in combination ([3]; PST UFR121, AF2 @ 8 μg/mL): <0.25 µg/mL
- MIC ATB in combination ([3]; PST UFR121, AF3 @ 8 μg/mL): <0.25 µg/mL
- MIC ATB in combination ([3]; PST UFR121, CLA @ 4 μg/mL): <=0.25 μg/mL
- MIC ATB in combination ([3]; PST UFR122, AF2 @ 8 μg/mL): <0.25 µg/mL
- MIC ATB in combination ([3]; PST UFR122, AF3 @ 8 μg/mL): <0.25 µg/mL
- MIC ATB in combination ([3]; PST UFR122, CLA @ 4 μg/mL): <=0.25 μg/mL
- MIC ATB in combination ([3]; PST UFR123, AF2 @ 8 μg/mL): <0.25 µg/mL
- MIC ATB in combination ([3]; PST UFR123, AF3 @ 8 μg/mL): <0.25 µg/mL
- MIC ATB in combination ([3]; PST UFR123, CLA @ 4 μg/mL): <=0.25 μg/mL
- MIC ATB in combination ([3]; PST UFR124, AF2 @ 8 μg/mL): <0.25 µg/mL
- MIC ATB in combination ([3]; PST UFR124, AF3 @ 8 μg/mL): <0.25 µg/mL
- MIC ATB in combination ([3]; PST UFR124, CLA @ 4 μg/mL): <=0.25 μg/mL
- MIC ATB in combination ([3]; PST UFR125, AF2 @ 8 μg/mL): <0.25 µg/mL
- MIC ATB in combination ([3]; PST UFR125, AF3 @ 8 μg/mL): <0.25 µg/mL
- MIC ATB in combination ([3]; PST UFR125, CLA @ 4 μg/mL): <=0.25 μg/mL
- MIC ATB in combination ([3]; PST UFR235, AF2 @ 8 μg/mL): <=0.25 μg/mL
- MIC ATB in combination ([3]; PST UFR235, AF3 @ 8 μg/mL): <=0.25 μg/mL
- MIC ATB in combination ([3]; PST UFR235, CLA @ 4 μg/mL): 8 µg/mL
- MIC ([3]; strain PST UFR94, genotype CTX-M-14): 0.5 µg/mL
- MIC ([3]; strain PST UFR95, genotype TEM-24): 4 µg/mL
- MIC ([3]; strain PST UFR98, genotype TEM-1, CMY-6, OXA-1, NDM-1, RmtC): >128 µg/mL
- MIC ATB in combination ([3]; strain PST UFR98, with AF2 @ 8 μg/mL): 64 µg/mL
- MIC ATB in combination ([3]; strain PST UFR98, with AF3 @ 8 μg/mL): 32 µg/mL
- MIC ATB in combination ([3]; strain PST UFR98, with CLA @ 4 μg/mL): >128 µg/mL
- MIC ([3]; strain PST UFR235, compound alone): 512 µg/mL
- MIC ([3]; strain PST UFR235, genotype VEB-1): 512 µg/mL
- MIC ATB in combination ([4]; AF2 @ 8 μg/mL): <0.25 µg/mL
- MIC ATB in combination ([4]; AF3 @ 8 μg/mL): <0.25 µg/mL
- MIC ATB in combination ([4]; CLA @ 4 μg/mL): <=0.25 μg/mL
- MIC ([4]; strain STY S3371, genotype OXA-1): <=0.25 μg/mL
